Assay results reported in ChEMBL document CHEMBL1201862, “PubChem BioAssay data set” (2004).
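The compound was tested at five concentrations on cells cultured in 96-well plates, with a 48-hour exposure period. The concentration for 50% growth inhibition is given as GI50.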 The source made the active and inactive calls. Cut-off read from the data, not from the text of the source: active = GI50 up to about 1.1 µM and inactive = higher.

Columns and labels:
Test in all cases: NCI tumour cell line growth inhibition, 48 h
Malme-3M = tested on: Malme-3M
SK-OV-3 = tested on: SK-OV-3
DLD-1 = tested on: DLD-1
OVCAR-8 = tested on: OVCAR-8
SR = tested on: SR
SK-MEL-28 = tested on: SK-MEL-28
M14 = tested on: M14
UO-31 = tested on: UO-31
KM12 = tested on: KM12
HOP-62 = tested on: HOP-62
SF-268 = tested on: SF-268
OVCAR-5 = tested on: OVCAR-5
COLO 205 = tested on: COLO 205
HOP-92 = tested on: HOP-92
A549 = tested on: A549
ACHN = tested on: ACHN
OVCAR-3 = tested on: OVCAR-3
LOX IMVI = tested on: LOX IMVI
CCRF-CEM = tested on: CCRF-CEM
SW-620 = tested on: SW-620
MOLT-4 = tested on: MOLT-4
HT-29 = tested on: HT-29
XF498 = tested on: XF498
RPMI-8226 = tested on: RPMI-8226
M19-MEL = tested on: M19-MEL
SK-MEL-2 = tested on: SK-MEL-2
NCI-H522 = tested on: NCI-H522
SF-539 = tested on: SF-539
RXF 631 = tested on: RXF 631
CAKI-1 = tested on: CAKI-1
TK-10 = tested on: TK-10
UACC-257 = tested on: UACC-257
SF-295 = tested on: SF-295
SNB-75 = tested on: SNB-75
OVCAR-4 = tested on: OVCAR-4
HL-60 = tested on: HL-60
SNB-19 = tested on: SNB-19
UACC-62 = tested on: UACC-62
HCC 2998 = tested on: HCC 2998
K562 = tested on: K562
HCT-116 = tested on: HCT-116
EKVX = tested on: EKVX
DMS-114 = tested on: DMS-114
NCI-H460 = tested on: NCI-H460
HOP-18 = tested on: HOP-18
KM-20L2 = tested on: KM-20L2
HCT-15 = tested on: HCT-15
LXFL 529 = tested on: LXFL 529
IGROV-1 = tested on: IGROV-1
786-0 = tested on: 786-0
NCI-H226 = tested on: NCI-H226
SN12C = tested on: SN12C
NCI-H23 = tested on: NCI-H23
A498 = tested on: A498
RXF 393 = tested on: RXF 393
SNB-78 = tested on: SNB-78
DMS-273 = tested on: DMS-273
U-251 = tested on: U-251
SK-MEL-5 = tested on: SK-MEL-5

Compound: O=c1oc2c3ccc4ccccc4c3n(CCCN3CCCCC3)c2c2ccccc12
- GI50 (Malme-3M): 20.7 µM (inactive)
- GI50 (SK-OV-3): > 100 µM (inactive)
- GI50 (DLD-1): 25.2 µM (inactive)
- GI50 (OVCAR-8): 32.7 µM (inactive)
- GI50 (SR): 3.59 µM (inactive)
- GI50 (SK-MEL-28): 19.1 µM (inactive)
- GI50 (M14): 11.5 µM (inactive)
- GI50 (UO-31): > 100 µM (inactive)
- GI50 (KM12): 26.5 µM (inactive)
- GI50 (HOP-62): > 100 µM (inactive)
- GI50 (SF-268): 59.2 µM (inactive)
- GI50 (OVCAR-5): > 100 µM (inactive)
- GI50 (COLO 205): 10.9 µM (inactive)
- GI50 (HOP-92): > 100 µM (inactive)
- GI50 (A549): 34 µM (inactive)
- GI50 (ACHN): > 100 µM (inactive)
- GI50 (OVCAR-3): > 100 µM (inactive)
- GI50 (LOX IMVI): > 100 µM (inactive)
- GI50 (CCRF-CEM): 17.3 µM (inactive)
- GI50 (SW-620): 5.62 µM (inactive)
- GI50 (MOLT-4): 3.24 µM (inactive)
- GI50 (HT-29): 8.39 µM (inactive)
- GI50 (XF498): 64.6 µM (inactive)
- GI50 (RPMI-8226): 32.1 µM (inactive)
- GI50 (M19-MEL): 63.2 µM (inactive)
- GI50 (SK-MEL-2): > 100 µM (inactive)
- GI50 (NCI-H522): > 100 µM (inactive)
- GI50 (SF-539): 19.4 µM (inactive)
- GI50 (RXF 631): 46.7 µM (inactive)
- GI50 (CAKI-1): > 100 µM (inactive)
- GI50 (TK-10): 42.1 µM (inactive)
- GI50 (UACC-257): 33.6 µM (inactive)
- GI50 (SF-295): 46.9 µM (inactive)
- GI50 (SNB-75): 52.2 µM (inactive)
- GI50 (OVCAR-4): 45.9 µM (inactive)
- GI50 (HL-60): 17.2 µM (inactive)
- GI50 (SNB-19): > 100 µM (inactive)
- GI50 (UACC-62): > 100 µM (inactive)
- GI50 (HCC 2998): > 100 µM (inactive)
- GI50 (K562): 10.2 µM (inactive)
- GI50 (HCT-116): 16.1 µM (inactive)
- GI50 (EKVX): > 100 µM (inactive)
- GI50 (DMS-114): > 100 µM (inactive)
- GI50 (NCI-H460): 14.7 µM (inactive)
- GI50 (HOP-18): > 100 µM (inactive)
- GI50 (KM-20L2): 19.5 µM (inactive)
- GI50 (HCT-15): 29.1 µM
- GI50 (LXFL 529): 62.7 µM (inactive)
- GI50 (IGROV-1): > 100 µM (inactive)
- GI50 (786-0): 18.7 µM (inactive)

Compound: O=C(CC1C(=O)Nc2ccccc2S1(=O)=O)Nc1ccc(Cl)cc1 (stereo unspecified)
- GI50 (Malme-3M): 22.7 µM (inactive)
- GI50 (DLD-1): 33.5 µM (inactive)
- GI50 (OVCAR-8): 26.4 µM (inactive)
- GI50 (SR): 4.7 µM (inactive)
- GI50 (SK-MEL-28): 20 µM (inactive)
- GI50 (M14): 31 µM (inactive)
- GI50 (UO-31): 17.1 µM (inactive)
- GI50 (NCI-H226): 32.2 µM (inactive)
- GI50 (SF-268): 14.4 µM (inactive)
- GI50 (OVCAR-5): 78.9 µM (inactive)
- GI50 (HOP-92): 16.9 µM (inactive)
- GI50 (A549): 31.6 µM (inactive)
- GI50 (ACHN): 20.4 µM (inactive)
- GI50 (OVCAR-3): 15.2 µM (inactive)
- GI50 (LOX IMVI): 16.9 µM (inactive)
- GI50 (SN12C): 34 µM (inactive)
- GI50 (CCRF-CEM): 20.3 µM (inactive)
- GI50 (SW-620): 31.3 µM (inactive)
- GI50 (MOLT-4): 13.5 µM (inactive)
- GI50 (HT-29): 29.9 µM (inactive)
- GI50 (XF498): 11.7 µM (inactive)
- GI50 (RPMI-8226): 4.84 µM (inactive)
- GI50 (M19-MEL): 24 µM (inactive)
- GI50 (SK-MEL-2): 21.1 µM (inactive)
- GI50 (NCI-H522): 16.3 µM (inactive)
- GI50 (SF-539): 13.8 µM (inactive)
- GI50 (RXF 631): 27.6 µM (inactive)
- GI50 (CAKI-1): 16.5 µM (inactive)
- GI50 (TK-10): 20 µM (inactive)
- GI50 (UACC-257): 14.9 µM (inactive)
- GI50 (SF-295): 45.6 µM (inactive)
- GI50 (SNB-75): 16.9 µM (inactive)
- GI50 (NCI-H23): 38.9 µM (inactive)
- GI50 (A498): 25.8 µM (inactive)
- GI50 (OVCAR-4): 22.1 µM (inactive)
- GI50 (HL-60): 12.1 µM (inactive)
- GI50 (SNB-19): 18.8 µM (inactive)
- GI50 (UACC-62): 43 µM (inactive)
- GI50 (HCC 2998): 18.4 µM (inactive)
- GI50 (RXF 393): 15.9 µM (inactive)
- GI50 (SNB-78): 21.7 µM (inactive)
- GI50 (K562): 18.2 µM (inactive)
- GI50 (HCT-116): 27.7 µM (inactive)
- GI50 (DMS-273): 13.1 µM (inactive)
- GI50 (U-251): 16 µM (inactive)
- GI50 (DMS-114): 13.4 µM (inactive)
- GI50 (NCI-H460): 30.3 µM (inactive)
- GI50 (KM-20L2): > 100 µM (inactive)
- GI50 (HCT-15): 31.6 µM
- GI50 (LXFL 529): 22.9 µM (inactive)
- GI50 (IGROV-1): 17.2 µM (inactive)
- GI50 (786-0): 14.5 µM (inactive)
- GI50 (SK-MEL-5): 21.2 µM (inactive)

Compound: COC(=O)CC(c1ccccc1)C1(c2ccccc2)SCCS1 (stereo unspecified)
- GI50 (Malme-3M): > 290 µM (inactive)
- GI50 (SK-OV-3): > 290 µM (inactive)
- GI50 (DLD-1): > 290 µM (inactive)
- GI50 (OVCAR-8): 169 µM (inactive)
- GI50 (SR): 54.8 µM (inactive)
- GI50 (SK-MEL-28): > 290 µM (inactive)
- GI50 (KM12): 108 µM (inactive)
- GI50 (HOP-62): 266 µM (inactive)
- GI50 (NCI-H226): > 290 µM (inactive)
- GI50 (SF-268): 150 µM (inactive)
- GI50 (OVCAR-5): > 290 µM (inactive)
- GI50 (COLO 205): > 290 µM (inactive)
- GI50 (HOP-92): 12.6 µM (inactive)
- GI50 (A549): 272 µM (inactive)
- GI50 (ACHN): > 290 µM (inactive)
- GI50 (OVCAR-3): 55.1 µM (inactive)
- GI50 (LOX IMVI): 130 µM (inactive)
- GI50 (SN12C): 185 µM (inactive)
- GI50 (CCRF-CEM): 105 µM (inactive)
- GI50 (SW-620): 232 µM (inactive)
- GI50 (MOLT-4): 58.1 µM (inactive)
- GI50 (HT-29): 222 µM (inactive)
- GI50 (XF498): > 290 µM (inactive)
- GI50 (RPMI-8226): 21.2 µM (inactive)
- GI50 (M19-MEL): > 290 µM (inactive)
- GI50 (SK-MEL-2): 261 µM (inactive)
- GI50 (NCI-H522): 106 µM (inactive)
- GI50 (SF-539): > 290 µM (inactive)
- GI50 (RXF 631): 161 µM (inactive)
- GI50 (CAKI-1): 262 µM (inactive)
- GI50 (TK-10): > 290 µM (inactive)
- GI50 (UACC-257): > 290 µM (inactive)
- GI50 (SF-295): > 290 µM (inactive)
- GI50 (NCI-H23): 130 µM (inactive)
- GI50 (HL-60): 141 µM (inactive)
- GI50 (SNB-19): > 290 µM (inactive)
- GI50 (UACC-62): 142 µM (inactive)
- GI50 (HCC 2998): > 290 µM (inactive)
- GI50 (RXF 393): > 290 µM (inactive)
- GI50 (K562): 133 µM (inactive)
- GI50 (HCT-116): 101 µM (inactive)
- GI50 (DMS-273): 104 µM (inactive)
- GI50 (U-251): > 290 µM (inactive)
- GI50 (EKVX): > 290 µM (inactive)
- GI50 (DMS-114): 121 µM (inactive)
- GI50 (NCI-H460): 261 µM (inactive)
- GI50 (HOP-18): > 290 µM (inactive)
- GI50 (KM-20L2): > 290 µM (inactive)
- GI50 (HCT-15): 94.8 µM
- GI50 (LXFL 529): 92.7 µM (inactive)
- GI50 (IGROV-1): > 290 µM (inactive)
- GI50 (786-0): > 290 µM (inactive)
- GI50 (SK-MEL-5): 189 µM (inactive)
